Experimental data published in paper PMC11423540, “Synthesis and biological evaluation of ortho-phenyl phenylhydroxamic acids containing phenothiazine with improved selectivity for class IIa histone deacetylases” (Journal of Enzyme Inhibition and Medicinal Chemistry, 2024).
Like-named read-outs stand apart in the source and are kept apart here.

What was measured:
SCC2095 cells [1] = assay: Cell viability (MTT) assay, SCC2095; format: cell-based; details: 48 h, human oral cancer cells, read-out: IC50 of cytotoxicity SCC2095
Protocol: Human breast cancer MDA-MB-231 cells and gastric cancer SCM-1 cells were purchased from the American Type Culture Collection (Manasas, VA, USA). SCC2095 human oral cancer cells were kindly provided by Professor Susan R. Mallery (The Ohio State University).
To assess cell viability, cells were seeded in three replicates into 96-well plates at a density of 5×10^3/well for 24 h following incubation with compounds at the indicated concentrations. Then, cell viability was assessed with 3–(4,5-dimethylthiazol-2-yl)-2,5-diphenyltetrazolium bromide (MTT) solution (0.5 mg/mL) for 4h as described previously. After removing the medium, 200 µL of DMSO was added, and then the absorbance was measured at 570 nm using a plate reader (BMG LABTECH, Germany).

HDAC7 = molecular target: T1, HDAC7 (Homo sapiens, UniProt Q8WUI4); assay: HDAC inhibition assay, HDAC7
T1 sequence (Q8WUI4 1-952): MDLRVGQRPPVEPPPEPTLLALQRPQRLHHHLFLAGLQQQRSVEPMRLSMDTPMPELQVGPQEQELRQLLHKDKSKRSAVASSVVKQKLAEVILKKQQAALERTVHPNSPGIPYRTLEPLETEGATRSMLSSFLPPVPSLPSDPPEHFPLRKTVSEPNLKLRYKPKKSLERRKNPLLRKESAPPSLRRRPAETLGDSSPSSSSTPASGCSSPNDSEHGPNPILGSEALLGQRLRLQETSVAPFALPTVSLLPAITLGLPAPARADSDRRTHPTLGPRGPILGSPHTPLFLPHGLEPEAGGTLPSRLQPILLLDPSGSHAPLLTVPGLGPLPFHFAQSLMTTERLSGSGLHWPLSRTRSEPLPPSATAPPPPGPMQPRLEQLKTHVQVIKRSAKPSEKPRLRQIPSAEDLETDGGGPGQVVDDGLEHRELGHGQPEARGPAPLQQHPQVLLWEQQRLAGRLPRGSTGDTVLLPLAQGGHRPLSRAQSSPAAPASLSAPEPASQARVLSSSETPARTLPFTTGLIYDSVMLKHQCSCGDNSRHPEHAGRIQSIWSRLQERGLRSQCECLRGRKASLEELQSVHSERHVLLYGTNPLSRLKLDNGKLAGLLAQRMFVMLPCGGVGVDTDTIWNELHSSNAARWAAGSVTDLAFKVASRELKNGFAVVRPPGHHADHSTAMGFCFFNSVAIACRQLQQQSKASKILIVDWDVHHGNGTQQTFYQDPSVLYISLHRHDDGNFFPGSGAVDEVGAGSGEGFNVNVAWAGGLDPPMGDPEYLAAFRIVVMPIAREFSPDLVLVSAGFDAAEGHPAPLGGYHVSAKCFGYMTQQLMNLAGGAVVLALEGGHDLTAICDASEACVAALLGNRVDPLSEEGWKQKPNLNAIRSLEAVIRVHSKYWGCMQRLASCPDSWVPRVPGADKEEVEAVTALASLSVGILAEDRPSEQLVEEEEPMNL

HDAC4 = HDAC4 (Homo sapiens, UniProt P56524); assay: HDAC inhibition assay, HDAC4
HDAC6 = molecular target: T2, HDAC6 (Homo sapiens, UniProt Q9UBN7); assay: HDAC inhibition assay, HDAC6
T2 sequence (Q9UBN7 1-1215): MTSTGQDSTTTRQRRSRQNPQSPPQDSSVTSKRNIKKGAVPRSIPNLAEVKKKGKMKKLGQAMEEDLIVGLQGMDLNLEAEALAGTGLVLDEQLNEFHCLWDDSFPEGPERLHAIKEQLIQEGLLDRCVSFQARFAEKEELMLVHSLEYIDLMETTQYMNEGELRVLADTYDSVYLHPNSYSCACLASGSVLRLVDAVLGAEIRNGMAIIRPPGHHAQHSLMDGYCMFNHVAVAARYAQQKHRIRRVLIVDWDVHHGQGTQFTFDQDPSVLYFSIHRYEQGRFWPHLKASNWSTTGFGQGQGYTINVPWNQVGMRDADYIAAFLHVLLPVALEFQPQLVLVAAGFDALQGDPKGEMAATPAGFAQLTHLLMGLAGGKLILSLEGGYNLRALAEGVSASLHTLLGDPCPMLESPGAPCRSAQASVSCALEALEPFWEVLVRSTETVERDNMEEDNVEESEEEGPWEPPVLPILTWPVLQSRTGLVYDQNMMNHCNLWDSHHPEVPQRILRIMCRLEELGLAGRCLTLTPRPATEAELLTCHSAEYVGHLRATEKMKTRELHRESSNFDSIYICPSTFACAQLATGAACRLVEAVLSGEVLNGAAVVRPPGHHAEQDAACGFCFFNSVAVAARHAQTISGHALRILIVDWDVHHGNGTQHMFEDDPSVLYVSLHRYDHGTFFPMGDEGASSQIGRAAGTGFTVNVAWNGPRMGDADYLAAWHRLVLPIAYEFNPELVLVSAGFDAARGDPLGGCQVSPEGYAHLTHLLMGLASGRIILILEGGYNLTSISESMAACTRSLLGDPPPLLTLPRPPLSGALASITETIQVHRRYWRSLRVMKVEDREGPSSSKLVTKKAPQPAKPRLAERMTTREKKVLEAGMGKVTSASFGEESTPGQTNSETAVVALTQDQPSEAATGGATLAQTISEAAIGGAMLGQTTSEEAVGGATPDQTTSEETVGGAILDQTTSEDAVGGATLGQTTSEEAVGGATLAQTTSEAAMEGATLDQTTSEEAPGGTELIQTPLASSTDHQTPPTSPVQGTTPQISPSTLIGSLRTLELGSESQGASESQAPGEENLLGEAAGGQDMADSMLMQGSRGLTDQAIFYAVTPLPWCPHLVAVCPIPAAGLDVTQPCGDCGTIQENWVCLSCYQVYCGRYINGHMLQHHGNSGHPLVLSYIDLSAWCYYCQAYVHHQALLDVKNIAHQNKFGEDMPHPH

HeLa nuclear HDACs = assay: HDAC inhibition assay, HeLa nuclear extract (mixture of class I HDACs 1, 2, and 3); details: read-out: IC50 HeLa nuclear HDACs, Boc-Lys-(AMC) substrate
HDAC9 = HDAC9 (Homo sapiens, UniProt Q9UKV0); assay: HDAC inhibition assay, HDAC9
SCC2095 cells [2] = assay: Western blotting of caspase- and HDAC-related proteins; format: cell-based, human; details: SCC2095, DNA damage biomarker, western blot
Protocol: The protein expression was performed as previously described. Proteins were resolved on 10% SDS-PAGE, then transferred to PVDF (Bio-Rad) membranes. After blocking with 5% skimmed milk in PBS containing 0.1% Tween 20, the membranes were probed with primary antibodies against interest target proteins at 4 °C overnight. The following primary antibodies were used: […], cleaved caspase 9, acetyl α-tubulin, Hsp90, Histone H2A.X, p38, p-^180Thr/^182Tyr p38, PPARγ, and p21 were purchased from Cell Signalling Technologies (Beverly, MA, USA); pro-caspase 8, Millipore; β-actin, Sigma-Aldrich (St. Louis, MO, USA). Then, the immunoblots were washed and exposed to HRP-conjugated secondary antibodies at room temperature for 1 h. The immunoblots were examined by enhanced chemiluminescence.

SCC2095 cells [3] = assay: ROS determination by flow cytometry (DCFH-DA probe); format: cell-based, human; details: SCC2095, 12 h or 24 h
Protocol: Cells (2 × 10^5) were treated with tested compounds in 6-well plates for 24 h or 48 h, then washed with ice-cold PBS twice and harvested with trypsin. Cells were incubated with 5 µL Annexin V- FITC/PI (BD Pharmingen, San Diego) for 15 min in the dark condition. Then, the cells were measured by BD FACSCanto flow cytometer (BD, Franklin Lakes, NJ). For ROS determination, DMSO or H2O2 or compound 7 g-treated cells were stained with the ROS probe (DCFH-DA; 5 µM) and detected the DCFH-DA fluorescence.

Chain of HDAC4 (P56524 whole entry): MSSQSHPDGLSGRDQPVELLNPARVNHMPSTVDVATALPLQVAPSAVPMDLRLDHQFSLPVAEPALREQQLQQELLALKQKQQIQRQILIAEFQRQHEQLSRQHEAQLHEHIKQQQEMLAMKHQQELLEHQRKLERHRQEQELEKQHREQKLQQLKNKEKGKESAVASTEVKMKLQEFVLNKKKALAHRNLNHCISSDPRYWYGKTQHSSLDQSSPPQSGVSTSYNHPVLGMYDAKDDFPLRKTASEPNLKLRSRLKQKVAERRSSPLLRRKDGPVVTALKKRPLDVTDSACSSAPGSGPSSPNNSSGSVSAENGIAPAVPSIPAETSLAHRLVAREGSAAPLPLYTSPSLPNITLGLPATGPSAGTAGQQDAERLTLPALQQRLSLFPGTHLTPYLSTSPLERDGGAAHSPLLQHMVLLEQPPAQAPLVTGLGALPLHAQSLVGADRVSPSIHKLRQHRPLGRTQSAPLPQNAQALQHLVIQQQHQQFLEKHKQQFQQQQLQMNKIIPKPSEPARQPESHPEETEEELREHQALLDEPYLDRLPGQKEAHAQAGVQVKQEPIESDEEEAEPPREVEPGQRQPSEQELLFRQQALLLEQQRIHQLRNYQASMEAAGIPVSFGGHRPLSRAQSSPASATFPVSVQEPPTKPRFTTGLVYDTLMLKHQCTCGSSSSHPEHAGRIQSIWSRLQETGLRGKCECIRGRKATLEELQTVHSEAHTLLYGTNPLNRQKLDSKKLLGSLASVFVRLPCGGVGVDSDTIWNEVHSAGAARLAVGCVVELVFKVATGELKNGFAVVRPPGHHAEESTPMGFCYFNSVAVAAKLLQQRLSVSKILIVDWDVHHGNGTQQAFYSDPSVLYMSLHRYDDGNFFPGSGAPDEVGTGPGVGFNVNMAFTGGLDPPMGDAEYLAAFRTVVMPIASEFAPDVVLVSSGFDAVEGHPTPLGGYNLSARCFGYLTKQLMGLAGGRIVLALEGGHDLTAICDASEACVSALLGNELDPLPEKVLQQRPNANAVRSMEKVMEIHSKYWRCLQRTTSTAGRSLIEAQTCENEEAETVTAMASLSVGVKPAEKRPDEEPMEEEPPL
Chain of HDAC9 (Q9UKV0 whole entry): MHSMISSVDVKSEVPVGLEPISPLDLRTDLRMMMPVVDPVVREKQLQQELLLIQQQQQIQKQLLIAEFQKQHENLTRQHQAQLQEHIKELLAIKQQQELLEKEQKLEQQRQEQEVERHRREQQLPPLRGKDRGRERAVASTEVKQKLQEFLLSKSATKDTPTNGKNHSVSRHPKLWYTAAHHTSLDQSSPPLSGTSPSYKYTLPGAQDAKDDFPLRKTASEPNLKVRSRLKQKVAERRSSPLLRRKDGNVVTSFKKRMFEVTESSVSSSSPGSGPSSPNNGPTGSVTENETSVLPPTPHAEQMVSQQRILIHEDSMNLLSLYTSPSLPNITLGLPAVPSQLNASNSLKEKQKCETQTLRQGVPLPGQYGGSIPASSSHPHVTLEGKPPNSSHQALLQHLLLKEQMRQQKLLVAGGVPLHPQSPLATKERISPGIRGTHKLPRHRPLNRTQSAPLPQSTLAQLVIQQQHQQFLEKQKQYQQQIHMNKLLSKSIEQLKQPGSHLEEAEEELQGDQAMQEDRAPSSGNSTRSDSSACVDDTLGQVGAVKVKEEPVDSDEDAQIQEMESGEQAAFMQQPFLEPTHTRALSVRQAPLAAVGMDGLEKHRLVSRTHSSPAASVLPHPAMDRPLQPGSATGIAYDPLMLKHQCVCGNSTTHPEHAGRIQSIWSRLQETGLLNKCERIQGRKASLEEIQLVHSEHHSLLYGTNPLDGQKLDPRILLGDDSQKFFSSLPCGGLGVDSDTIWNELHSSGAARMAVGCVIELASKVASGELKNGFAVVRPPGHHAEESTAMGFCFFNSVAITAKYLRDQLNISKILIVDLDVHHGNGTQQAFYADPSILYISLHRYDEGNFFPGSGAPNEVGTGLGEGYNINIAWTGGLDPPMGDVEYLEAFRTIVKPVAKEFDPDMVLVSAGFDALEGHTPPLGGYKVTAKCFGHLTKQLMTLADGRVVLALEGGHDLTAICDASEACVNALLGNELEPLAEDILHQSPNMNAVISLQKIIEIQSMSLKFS

Compound | IC50 (SCC2095 cells [1]; Homo sapiens) [µM] | IC50 (HDAC7) [µM] | IC50 (HDAC4) [µM] | IC50 (HDAC6) [µM] | IC50 (HeLa nuclear HDACs) [µM] | IC50 (HDAC9) [µM] | HDAC6 inhibitory activity, fold less potent than LH4f (HDAC6; versus LH4f) [fold] | IC50 (SCC2095 cells [1]) [µM] | phosphorylation of Histone H2A.X (SCC2095 cells [2]) | ROS generation (SCC2095 cells [3])
O=C(NO)c1ccc(CN2c3ccccc3Sc3ccccc32)cc1-c1ccccc1 [Compound 7a, N-Hydroxy-4-[(10H-phenothiazin-10-yl)methyl]-2-phenylbenzamide] | 3.9 | 0.71 ± 0.01 | 0.48 ± 0.04 | 3.2 ± 0.77 | > 40 | 0.42 ± 0.06 | – | – | – | –
O=C(NO)c1ccc(CN2c3ccccc3Sc3ccc(Cl)cc32)cc1-c1ccccc1 [Compound 7b, N-Hydroxy-4-[(2-chloro-10H-phenothiazin-10-yl)methyl]-2-phenylbenzamide] | 5 | 0.23 ± 0.02 | 0.28 ± 0.03 | 2.12 ± 0.37 | > 40 | 0.2 ± 0.01 | – | – | – | –
O=C(NO)c1ccc(CN2c3ccccc3Sc3ccc(C(F)(F)F)cc32)cc1-c1ccccc1 [Compound 7c, N-Hydroxy-4-{[2-(trifluoromethyl)-10H-phenothiazin-10-yl]methyl}-2-phenylbenzamide] | 6 | 0.23 ± 0.05 | 0.28 ± 0.04 | 3.19 ± 0.11 | > 40 | 0.27 ± 0.02 | – | – | – | –
COc1ccc2c(c1)N(Cc1ccc(C(=O)NO)c(-c3ccccc3)c1)c1ccccc1S2 [Compound 7d, N-Hydroxy-4-[(2-methoxy-10H-phenothiazin-10-yl)methyl]-2-phenylbenzamide] | 3.2 | 0.71 ± 0.12 | 0.8 ± 0.01 | 3.68 ± 0.41 | > 40 | 0.64 ± 0.08 | – | – | – | –
CC(=NO)c1ccc2c(c1)N(Cc1ccc(C(=O)NO)c(-c3ccccc3)c1)c1ccccc1S2 [Compound 7f, N-Hydroxy-4-{2-[1-(hydroxyimino)ethyl]-10H-phenothiazin-10-yl}methyl-2-phenylbenzamide] | 4.6 | 0.41 ± 0.02 | 0.58 ± 0.07 | 1.61 ± 0.09 | > 40 | 0.32 ± 0.07 | – | – | – | –
NC(=O)c1ccc2c(c1)N(Cc1ccc(C(=O)NO)c(-c3ccccc3)c1)c1ccccc1S2 [Compound 7h] | 3.6 | 0.16 ± 0.01 | 0.2 ± 0.05 | 0.75 ± 0.06 | > 40 | 0.11 ± 0.01 | 150 | – | – | –
O=C(NO)c1ccc(CNC23CC4CC(CC(C4)C2)C3)cc1-c1ccccc1 [Compound 7i, N-Hydroxy-4-[(adamantan-1-ylamino)methyl]-2-phenylbenzamide] | > 10 | 12.9 ± 2.14 | 18.7 ± 2.16 | > 40 | > 40 | 23.7 ± 4.14 | – | – | – | –
O=C(NO)c1ccc(CN2CCCc3ccccc3C2)cc1-c1ccccc1 [Compound 7j, N-Hydroxy-4-[(1,3,4,5-tetrahydro-2H-benzo[c]azepin-2-yl)methyl]-2-phenylbenzamide] | > 10 | 0.84 ± 0.03 | 0.91 ± 0.07 | 18.22 ± 0.02 | > 40 | 0.95 ± 0.05 | – | – | – | –
COc1cc(-c2cc(CN3c4ccccc4Sc4ccc(C#N)cc43)ccc2C(=O)NO)cc(OC)c1OC [Compound 19a, N-Hydroxy-4-[(2-cyano-10H-phenothiazin-10-yl)methyl]-2–(3,4,5-trimethoxyphenyl)benzamide] | 7.6 | 17.9 ± 0.92 | > 40 | 7.6 ± 0.36 | > 40 | 18.6 ± 0.96 | – | – | – | –
COc1ccc(-c2cc(CN3c4ccccc4Sc4ccc(C#N)cc43)ccc2C(=O)NO)cc1 [Compound 19b, N-Hydroxy-4-[(2-cyano-10H-phenothiazin-10-yl)methyl]-2–(4-methoxyphenyl)benzamide] | 1.8 | 4.03 ± 0.16 | 6.28 ± 0.13 | 4.03 ± 0.25 | > 40 | 5.34 ± 0.4 | – | – | – | –
N#Cc1ccc2c(c1)N(Cc1ccc(C(=O)NO)c(-c3ccc(F)cc3)c1)c1ccccc1S2 [Compound 19c, N-Hydroxy-4-[(2-cyano-10H-phenothiazin-10-yl)methyl]-2–(4-fluorophenyl)benzamide] | 2.6 | 0.54 ± 0.06 | 1 ± 0.03 | 4.22 ± 0.18 | > 40 | 0.72 ± 0.03 | – | – | – | –
COc1cc([C@@H]2c3cc4c(cc3[C@@H](O[C@@H]3O[C@@H]5CO[C@@H](C)O[C@H]5[C@H](O)[C@H]3O)[C@H]3COC(=O)[C@H]23)OCO4)cc(OC)c1O [Etoposide, reference compound] | 3.3 ± 0.5 | – | – | – | – | – | – | 2.3 | – | –
O=C(NCC1(c2nc(-c3ccccc3)cs2)CCOCC1)c1cccc(-c2noc(C(F)(F)F)n2)c1 [TMP269, reference compound] | 18.1 ± 3.8 | – | – | – | – | – | – | – | increased | increased
